Data reported in patent EP2633855A1, “Protease inhibitors for treating Trichomonas gallinae infections” (Veterinärmedizinische Universität Wien, priority 2012, dated 2013).
Square brackets hold non-standard residues; d marks the D form. Peptide text beside a SMILES is read from it. * marks the point of attachment. Sta = CC(C)C[C@H](N)[C@@H](O)CC(=O)O; Isovaleryl = CC(C)CC(=O)*

What was measured:
Entamoeba histolytica = conditions: SCID mice; preincubation of the trophozoites with the inhibitor; cited from earlier work
[1] = test system: embryonated spf chicken eggs; assay: Toxicity of peptidase inhibitors in PBS to non-infected spf chicken embryos (control groups); assay type: in vivo
Experimental: For each treatment, ten 9-day old embryonated spf chicken eggs were inoculated with 200 µl of the individual sample of protozoa suspended in sterile PBS via the allantoic cavity following a standard egg inoculation procedure (Senne, 1998). In addition, ten eggs were inoculated in the same way with sterile PBS with and without an adjusted concentration of peptidase inhibitors, to be used as a control. The inoculated eggs were sealed with melted paraffin and incubated at 37°C at a relative humidity of 55-60%. The survival of the embryos was monitored by candling the eggs daily. At the end of the incubation period (10 days) the eggs were placed at -20°C for two hours to kill the embryos and to avoid hatching. The allantoic fluid was harvested and examined microscopically for the detection of flagellates, before the embryos were necropsied. Afterwards, samples from different organs (liver, heart, lung, proventriculus, gizzard, kidney, spleen, and intestine) were preserved in 10% buffered neutral formalin and later on embedded in paraffin wax for histological examination. […] Additionally, samples from liver and gut were preserved at -20°C for polymerase chain reaction (PCR). DNA was extracted from tissue samples applying the Dneasy® Tissue Kit (Qiagen, Vienna, Austria), according to the manufacturer instructions. […]

T. gallinae trophozoites = assay: Viability of trichomonads with peptidase inhibitors (trypan blue staining); assay type: cell-based; conditions: read-out: optimum concentration that had no effect on the viability of T. gallinae trophozoites
Experimental: (§1) The axenic clonal cultures of T. gallinae were grown in Hollander fluid (HF) medium, as described above (Amin et al., 2010). At first, clonal cultures which underwent only a few passages were investigated. Higher passages were obtained by transferring 1 ml of the respective culture into 9 ml of fresh HF medium every 48 h. Assessing the virulence as well as the effect of peptidase inhibitors was performed with an equal passage number (P18). After 24 h of incubation, the cultures were centrifuged at 3300 x g for 5 min (Hettich Rotanta 460, Tuttlingen, Germany). The pellet was washed three times by addition of phosphate buffer saline (PBS, pH 7.2) followed by centrifugation. For counting cells were suspended in 1 ml PBS buffer and motile trichomonads were determined by a Neubauer cell counting chamber (Reichert, Buffalo, NY, USA). The concentration of the inoculum was adjusted to contain approximately 5x10^6 actively motile trophozoites suspended in 200 µl PBS buffer. The viability of trichomonad cells was evaluated using trypan blue staining.

[2] = test system: peptidase activity in T. gallinae cell-free filtrates; assay: One-dimensional substrate (0.2% gelatin) SDS-PAGE zymogram of cell-free filtrates; assay type: biochemical; conditions: clone 5895-C1/06 P49 and P130
Experimental: (§2) For analysis in one- (1-D) and two-dimensional (2-D) zymogram and conventional SDS PAGE the filtrate was prepared in the following way: T. gallinae clonal culture was grown in Hollander fluid (HF) medium as described recently (Amin et al., Exp. Parasitol. 124 (2010), 202-208). After 24 h of incubation, the trichomonad culture was centrifuged at 3300 x g for 5 min; the pellet was washed three times in phosphate buffer saline (PBS, pH 7.2) and was then suspended in 1 ml HF medium without serum. Motile trichomonads were counted by a Neubauer cell counting chamber (Reichert, Buffalo, NY). The concentration of the inoculum was adjusted to 10^7 motile trophozoites. 10^7 trichomonad cells were grown for 3, 6, 16, 24 h in 10 ml HF medium without serum and the cell-free filtrate was prepared. The trichomonad culture was centrifuged at 3300 x g for 5 min, and then the supernatant from the culture was filtered through 0.22 µm cellulose acetate filters (Millipore, VWR). Afterwards, 1 mM PMSF, 5 µM of Pepstatin A, 1 mM TLCK and 270 µM E-64 were added to the cell-free filtrate and incubated for 30 min on ice before concentrating the proteins. Two types of filters were used to concentrate the proteins of the cell-free filtrate. Firstly, CEN-TRIPREP® Centrifugal Filter Device 3K (Millipore, Vienna, Austria) was applied to reduce the initial volume of the filtrate (15ml) to 500 µl. After that, the samples were more concentrated using Amicon® Ultra-0.5 3K centrifugal filter device (Millipore, Vienna, Austria) to obtain a final volume of 100 µl. Both types of filters were used following manufacturer's instructions. With the samples for 2-dimensional (2-D) sodium dodecyl sulphate (SDS)-polyacrylamide gel electrophoresis (PAGE) buffer was exchanged (three times) to 10 mM Tris-Cl pH 7.2 by using the same Amicon® Ultra-0,5 3K centrifugal filter device (Millipore,Vienna, Austria). For all samples the protein concentration was measured by Bradford Reagent (Fermentas, Thermo Scientific).
(§3) For one dimension (1-D) zymographic analysis, 24 µg of concentrated p 183 proteins from cell free filtrates with and without peptidase inhibitors were separated by discontinuous SDS-PAGE (8%) copolymerized with 0.2% gelatin as substrate. In parallel, the same samples were investigated by conventional 1-D SDS-PAGE (8%). After electrophoresis, the substrate gel was incubated in 2.5% Triton X-100 (Bio-Rad Laboratories GmbH, Vienna, Austria) for 1 h at room temperature to remove SDS. Subsequently the peptidases were activated by incubating the gel in zymogram development buffer (Bio-Rad Laboratories GmbH, Vienna, Austria) for 24 h at 37 °C. […]

LMH monolayer = assay: Cytopathic effect of T. gallinae cell-free filtrate on LMH monolayer (monolayer detachment, lesion score); assay type: cell-based, chicken; conditions: compared with filtrate without inhibitors
Experimental: Permanent chicken liver (LMH) cells were grown in Medium 199 + Earle's salts + L-Glutamine (Invitrogen/Gibco, Paisley, U.K.). The medium was supplemented with 10% of FBS, 10% Tryptose Phosphate broth, penicillin (40,000 IU/ml) and streptomycin ([…]) (all Invitrogen/Gibco, Paisley, U.K). One milliliter of the media suspension containing 1x10^6 cells was inoculated into 75 cm^2 flasks with filtered caps (Sarstedt, Wiener Neudorf, Austria) containing 6 ml medium. Cells were kept in a controlled atmosphere of 5% CO2 at 37°C and around 85-90% humidity. After 72 h of incubation, a confluent monolayer of LMH cells was obtained with an average of 7x10^6 cells per flask. Cells were passaged every three to four days depending on their density.
(§4) For the analysis on LMH monolayers cell-free filtrate was prepared in the following way: 10^7 cells of a clonal culture of T. gallinae were incubated at 37°C for 24 h in the same medium as used for growth of LMH. Before incubation the protozoal cells were washed three times in PBS, (pH 7.2), trichomonad culture was centrifuged at 3300 x g for 5 min and then the supernatant from the culture was filtered through 0.22 µm cellulose acetate filters (Millipore, VWR).
Each monolayer was investigated visually by an inverted 158 light microscope to detect the effect of the cell-free filtrates on LMH monolayer. Assesment of the monolayer was performed as recently described (Amin et al., Vet.Parasitol. (2011), doi: 10.1016/j.vetpar.2011.11.037).
Firstly, preliminary experiments were done to establish the concentration of each peptidase inhibitor which was not toxic to the monolayer cell culture. In these initial experiments different concentrations of the following peptidase inhibitors were added to not-infected monolayer: 0.2 mM, 0.5 mM, 1 mM Phenylmethylsulfonyl fluoride (PMSF) as serine peptidase inhibitor, 1 µM, 2.5 µM, 5 µM pepstatin A as aspartic peptidase inhibitor, 135 µM, 540 µM, 1 mM N-α-p-Tosyl-L-Lysine chloromethyl ketone (TLCK) as cysteine and some serine peptidase inhibitor, and 70 µM 140 µM, 270 µM L-3-carboxyl-2,3-trans-epoxysuccinylleucylamido (4-guanidino) butane (E-64) as cysteine peptidase inhibitor (all purchased from Sigma-Aldrich, Steinheim, Germany).

LMH cells = assay: CellTiter 96 aqueous one solution cytotoxicity assay of cell-free filtrate on LMH cells; assay type: cell-based, chicken; conditions: Gallus gallus; 270 µM E-64; 72 h of incubation; clone 5895-C1/06, passage 18; filtrate without E-64: 70.9%; read-out: cytotoxicity of the cell-free filtrate on LMH cells in the presence of the inhibitor
Experimental: as §4
In order to investigate the cytotoxicity of cell-free filtrate on cell culture, CellTiter 96® aqueous one solution cell proliferation assay (Promega Corporation, Madison, USA) was used following manufacturer's instructions. The cell-free filtrate from 10^7 trichomonad cells was prepared as described above and 270 µM of E-64 as cysteine peptidase inhibitor was added to cell-free filtrate before its incubation with the monolayer. Cytotoxicity assay was performed as described recently by Amin et al. (2011).

[3] = test system: peptidase activity in T. gallinae cell-free filtrates; assay: Conventional 1-D SDS-PAGE of cell-free filtrates with and without peptidase inhibitors; assay type: biochemical; conditions: clone 5895-C1/06 P49
Experimental: as §2, §3

[4] = test system: T. gallinae clone 5895-C1/06 P18; assay: Infection of spf chicken embryos with T. gallinae coincubated with peptidase inhibitors (mortality, necropsy, histology, PCR, ISH); assay type: in vivo, Trichomonas gallinae; conditions: for detection of trichomonad nucleic acid by ISH / histopathological examination of different organs of infected embryos: spf chicken embryos
Experimental: as §1
For each treatment, ten 9-day old embryonated spf chicken eggs were inoculated with 200 µl of the individual sample of protozoa suspended in sterile PBS via the allantoic cavity following a standard egg inoculation procedure (Senne, 1998). In addition, ten eggs were inoculated in the same way with sterile PBS with and without an adjusted concentration of peptidase inhibitors, to be used as a control. The inoculated eggs were sealed with melted paraffin and incubated at 37°C at a relative humidity of 55-60%. The survival of the embryos was monitored by candling the eggs daily. At the end of the incubation period (10 days) the eggs were placed at -20°C for two hours to kill the embryos and to avoid hatching. The allantoic fluid was harvested and examined microscopically for the detection of flagellates, before the embryos were necropsied. Afterwards, samples from different organs (liver, heart, lung, proventriculus, gizzard, kidney, spleen, and intestine) were preserved in 10% buffered neutral formalin and later on embedded in paraffin wax for histological examination. […] Additionally, samples from liver and gut were preserved at -20°C for polymerase chain reaction (PCR). DNA was extracted from tissue samples applying the Dneasy® Tissue Kit (Qiagen, Vienna, Austria), according to the manufacturer instructions. PCR was performed following the protocol of Grabensteiner and Hess (Vet. Parasitol. 142 (2006), 223-230). The embryos that died during the experiments were exposed to the same examination procedures. During necropsy autoclaved scissors and disposable tweezers were used for collecting the samples to avoid cross contamination.

SMILES: CC(C)CC(NC(=O)C1OC1C(=O)O)C(=O)NCCCCNC(=N)N [E-64, L-3-carboxyl-2,3-trans-epoxysuccinylleucylamido (4-guanidino) butane]
- liver abscesses produced by Entamoeba histolytica (Entamoeba histolytica): greatly reduced
- cytotoxic effect on the embryos, mortalities or pathomorphological changes in negative control groups ([1]; 270 µM E-64 in PBS): no cytotoxic effect on the embryos
- MNTC (T. gallinae trophozoites): 270 µM
- proteolytic bands on zymograms of cell-free filtrates ([2]; 270 µM E-64): No proteolytic bands were observed
- cytopathic effects induced by trichomonads (detachment of the monolayer) (LMH monolayer; 270 µM E64 added to cell-free filtrate of clone 5895-C1/06): best inhibition
- cytopathic effects induced by trichomonads (detachment of the monolayer) (LMH monolayer; 270 µM E64 added to cell-free filtrate of clone 5895-C1/06, listed as E64): partially inhibited cytopathic effects
- cytotoxicity at 270 µM (LMH cells): 37.1%
- band pattern in conventional SDS-PAGE ([3]; 270 µM E-64): pattern of sharp bands
- PCR results: infection in the presence versus absence of inhibitor ([4]; 270 µM E-64): no considerable differences
- detection of trichomonad nucleic acid by ISH ([4]; 270 µM E-64): nucleic acid of trichomonds was demonstrated by ISH in the hepatic parenchyma
- histopathological examination of different organs of infected embryos ([4]; 270 µM E-64): no histological changes
- PCR results from the liver and gut of infected embryos ([4]; 270 µM E-64 coincubated): positive PCR results

SMILES: O=S(=O)(F)Cc1ccccc1 [PMSF, Phenylmethylsulfonyl fluoride]
- proteolytic bands on zymograms of cell-free filtrates ([2]; 1 mM PMSF): same proteolytic regions as the sample without inhibitors
- cytopathic effects induced by trichomonads (detachment of the monolayer) (LMH monolayer; 1 mM PMSF added to cell-free filtrate of clone 5895-C1/06): partially inhibited cytopathic effects
- band pattern in conventional SDS-PAGE ([3]; 1 mM PMSF): this pattern was not prominent

SMILES: CC(C)CC(=O)N[C@H](C(=O)N[C@H](C(=O)N[C@@H](CC(C)C)[C@@H](O)CC(=O)N[C@@H](C)C(=O)N[C@@H](CC(C)C)[C@@H](O)CC(=O)O)C(C)C)C(C)C [Pepstatin A, pepstatin A] (Isovaleryl-VV[Sta]A[Sta]-OH)
- proteolytic bands on zymograms of cell-free filtrates ([2]; 5 µM Pepstatin A): same proteolytic regions as the sample without inhibitors
- cytopathic effects induced by trichomonads (detachment of the monolayer) (LMH monolayer; 5 µM Pepstatin A added to cell-free filtrate of clone 5895-C1/06): no inhibitory effect
- band pattern in conventional SDS-PAGE ([3]; 5 µM Pepstatin A): this pattern was not prominent

SMILES: Cc1ccc(S(=O)(=O)N[C@@H](CCCCN)C(=O)CCl)cc1 [TLCK, N-α-p-Tosyl-L-Lysine chloromethyl ketone]
- cytotoxic effect on the embryos, mortalities or pathomorphological changes in negative control groups ([1]; 675 µM TLCK in PBS): no cytotoxic effect on the embryos
- MNTC (T. gallinae trophozoites): 675 µM
- proteolytic bands on zymograms of cell-free filtrates ([2]; 1 mM TLCK): No proteolytic bands were observed
- cytopathic effects induced by trichomonads (detachment of the monolayer) (LMH monolayer; 135 µM TLCK added to cell-free filtrate of clone 5895-C1/06): partially inhibited cytopathic effects
- band pattern in conventional SDS-PAGE ([3]; 1 mM TLCK): pattern of sharp bands
- PCR results from the liver and gut of infected embryos ([4]; 675 µM TLCK coincubated): positive PCR results
- PCR results: infiltration of the flagellate to the liver ([4]; 675 µM TLCK, compared with E-64): more distinct inhibitory effect on the infiltration of the flagellate to the liver than E-64
- detection of trichomonad nucleic acid by ISH ([4]; 675 µM TLCK): nucleic acid of trichomonds was demonstrated by ISH in the hepatic parenchyma
- histopathological examination of different organs of infected embryos ([4]; 675 µM TLCK): no histological changes
